Assay results as given in patent publication US20050257280A1, “Nonhuman model animal nonresponsive to endotoxin and lipoprotein or lipopeptide” (priority 2002, published 2005).

Assays:
Format in all cases: cell-based, mouse
[1] = test system: ERK1/2, JNK and p38; test: Activation of MAP kinases in peritoneal macrophages (Western blot); settings: LPS 100 ng/ml, MALP-2 3 ng/ml, R848 100 nM, 10 min and 20 min
Protocol: Next, peritoneal macrophages from wild-type and TIRAP^−/− mice were stimulated with 100 ng/ml of LPS, 3 ng/ml of MALP-2, and 100 nM of R848 for 10 min and 20 min, respectively. The cells were then lysed in the lysis buffer containing 1.0% Nonidet P-40, 150 mM NaCl, 20 mM tris-C1 (pH 7.5), 5 mM EDTA and protease inhibitor cocktail (Roche). The cell lysates were dissolved by SDS-PAGE and transferred onto a PVDF membrane (BioRad). The above-mentioned PVDF membrane was blotted with […] specific to ERK1/2, JNK, and p38 (Santa Cruz), and […] specific to phosphorylated ERK 1/2, phosphorylated JNK, and phosphorylated p38 (Cell Signaling) and Western blot analysis was conducted by visualizing with an enhanced chemiluminescence system (NEN Life Science Product) (FIG. 12). […] The result is quite similar to those observed in MyD88^−/− mice (Kawai et al.: Immunity 11: 115-22; 1999).

[2] = test system: IRAK-1; test: IRAK-1 in vitro kinase assay on lysates of stimulated peritoneal macrophages
Protocol: IRAK-1 is activated in the downstream of MyD88. […] In vitro kinase assay was conducted as described previously (Sato et al. II), and kinase activation of IRAK-1 was measured. The same lysates were blotted with anti-IRAK-1 antibody, and the effect of IRAK-1 was analyzed (FIG. 13).

[3] = test system: splenocytes from wild-type and TIRAP−/− mice; test: Proliferation of splenocytes in the presence of IL-1, PHA or both ([3H]-thymidine uptake); settings: 100 U/ml IL-1β, 10 ng/ml PHA, 72 hr + 12 hr
Excerpt: As shown in MyD88-, TRAF6-, and IRAK-4-deficient mice, signaling pathway via IL-1 receptor family utilizes the same signaling pathway as that of TLRs (Adachi et. al., Immunity. 9, 143-150, 1998; Lomaga et al., Gene Dev. 13, 1015-24, 1999; Naito et al., Gene Cells 4, 353-62, 1999; Suzuki et al., Nature 416, 750-56, 2002). To investigate the proliferation of splenocytes from TIRAP^−/− mice induced by IL-1 or Phytohemagglutinin (PHA) being co-stimulatory substance with IL-1, splenocytes from wild-type and TIRAP^−/− mice were cultured for 72 hr and proliferated in the presence of 100 U/ml of IL-1β, and of 10 ng/ml of PHA, and in the co-presence of IL-1β and PHA, then supplemented with 1 μCi of [^3H]-thymidine, further cultured for 12 hr, and measured the uptake of [^3H] with a β scintillation counter. Proliferation of splenocytes was determined by measuring the [^3H] level of [^3H] thymidine ingested into a cell.

[4] = test system: peritoneal macrophages from wild-type and TIRAP−/− mice; test: Inflammatory cytokine production of peritoneal macrophages (ELISA of culture supernatant); settings: LPS 1 ng/ml 24 hr, MALP-2 and PGN at various concentrations
Protocol: Next, LPS-induced inflammatory cytokine production of peritoneal macrophages from wild-type and TIRAP^−/− mice was analyzed. 2 ml of 4% thioglycollate medium (DIFCO) were intraperitoneally injected into TIRAP^−/− and wild-type mice, respectively. Three days later, peritoneal exudate cells were isolated from peritoneal cavity of each mouse. The cells were cultured for 2 hr at 37° C. in RPMI 1640 medium (GIBCO) supplemented with 10% fetal bovine serum (GIBCO), nonadherent cells were removed by washing with Hank's buffered salt solution: HBSS; GIBCO) at ice temperature, and adherent cells were used as peritoneal macrophages. Each obtained peritoneal macrophage was cultured with 1 ng/ml of Re-595 LPS for 24 hr, and concentration of IL-6, TNF-α and IL-12 in the culture supernatant was measured according to a common procedure by ELISA (FIG. 7; means±SD of triplicates, N.D. Not detected).
IL-6, TNF-α and IL-12 in the culture supernatant were measured using mycoplasmal lipopeptide MALP-2 being TLR2 ligand (synthesized and purified as described in Takeuchi-MALP) and Staphylococcus aureus peptidoglycan (PGN) (Fluka) at various concentrations (FIG. 9). […] Next, peritoneal macrophages of wild-type and TIRAP^−/− mice were stimulated with Poly I:C being TLR3 ligand (Amersham) for 4 hr and 8 hr. Total RNA was extracted, and the expression of IFN-β mRNA was analyzed by Northern blot method. […]

[5] = test system: NF-κB; test: NF-κB DNA binding in nuclear extracts of peritoneal macrophages (EMSA); settings: LPS 100 ng/ml, MALP-2 3 ng/ml, R-848 10 nM
[6] = test system: IFN-β mRNA; test: Expression of IFN-β mRNA in peritoneal macrophages (Northern blot); settings: stimulated 4 hr and 8 hr
Protocol: IL-6, TNF-α and IL-12 in the culture supernatant were measured using mycoplasmal lipopeptide MALP-2 being TLR2 ligand (synthesized and purified as described in Takeuchi-MALP) and Staphylococcus aureus peptidoglycan (PGN) (Fluka) at various concentrations (FIG. 9). […] Next, peritoneal macrophages of wild-type and TIRAP^−/− mice were stimulated with Poly I:C being TLR3 ligand (Amersham) for 4 hr and 8 hr. Total RNA was extracted, and the expression of IFN-β mRNA was analyzed by Northern blot method. At that time, 18S ribosomal RNA was used as control. Expression of IFN-β mRNA was induced in both wild-type and TIRAP^−/− mice (FIG. 10).

[7] = TIRAP−/− peritoneal macrophages
[8] = wild-type peritoneal macrophages

Molecule | phosphorylation/activation of ERK1/2, JNK and p38 ([1]; wild-type macrophages) | autophosphorylation (Auto) of IRAK-1 ([2]; TIRAP−/− macrophages) | autophosphorylation (Auto) of IRAK-1 ([2]; wild-type macrophages) | proliferation of splenocytes (uptake of [3H]-thymidine) ([3]; TIRAP−/− splenocytes) | proliferation of splenocytes (uptake of [3H]-thymidine) ([3]; wild-type splenocytes) | also measured
CCOCc1nc2c(N)nc3ccccc3c2n1CC(C)(C)O [R-848] | phosphorylated and activation was induced | autophosphorylation was induced | induced autophosphorylation | – | – | –
IL-1: Interleukin-1 cytokine, used as IL-1β at 100 U/ml | – | – | – | enhanced proliferation | enhanced proliferation | –
MALP-2 | phosphorylated and activation was induced | not observed | induced autophosphorylation | – | – | production of IL-6, TNF-α and IL-12 [4, 7]: severely impaired; production of IL-6, TNF-α and IL-12 [4, 8]: dose-dependent production; phosphorylation/activation of ERK1/2, JNK and p38 ([1]; TIRAP−/− macrophages): not observed; NF-κB DNA binding effect ([5]; TIRAP−/− macrophages, LPS at 10 min): significantly inhibited; NF-κB DNA binding effect ([5]; wild-type macrophages, LPS and MALP-2 at 10 min): observed
Phytohemagglutinin [PHA] | – | – | – | enhanced proliferation | enhanced proliferation | –
Poly I:C | – | – | – | – | – | expression of IFN-β mRNA [6, 7]: induced; expression of IFN-β mRNA [6, 8]: induced
